Data set [1] relates to neoplastic tissues (tumors and metastases). Conditions: radiopharmaceuticals used up to now; cited from earlier work.
The conditions of data set [2]: cited from earlier work; for Ray dose for the person examined: radiopharmaceuticals used up to now.
For data set [3] the following is noted: in vivo, cited from earlier work.
Data set [4] concerns brain tumor. Conditions: literature sources 1-2 of Table 2, cited from earlier work.
Data set [5] has as its system brain tumor. Conditions: cited from earlier work.
Data set [6] can be described thus: Stability of the complexes. In kind it is physicochemical. As to conditions: in solution.

Where “and” joins values, the source holds several entries; their conditions need not be identical. Equal values may be shown once. Read-outs that look alike come from different tables or passages of the source.

This is an account of results in US4113850A, “Composition for the diagnostic visualization of neoplastic tissues” (Solco Basel AG, priority 1974, dated 1978).

For `O=C([O-])CC(O)(CC(=O)[O-])C(=O)[O-].[67Ga+3]` [^67 Gallium citrate], the Tumor affinity entry in data set [1] is “low and uncertain tumor affinity”. Besides, the “Ray dose for the person examined” value in data set [2] is reported as “high ray dose”.
Consider `[O]=[99Tc](=[O])(=[O])[O-]` [Example 99mTcO4, ^99m Tc-pertechnetate], for which the Concentration in organs entry in data set [3] (listed as 99m Tc-pertechnetate) was “particularly high concentrations occur in the thyroid but also in the plexus chorioideus (brain), in the salivary glands and in the gastric mucosa”; in data set [3] (listed as pertechnetate), “concentrates above all in the thyroid”. Further, the “Ray dose of the critical organs: Blood” value in data set [2] (Blood, hitherto used substances) is 17 - 47 mrad/mCurie. Also, the “Ray dose of the critical organs: Colon” value in data set [2] (Colon, hitherto used substances) is 150 - 290 mrad/mCurie. The “Ray dose of the critical organs: Stomach” value in data set [2] (Stomach, hitherto used substances) is 40 - 320 mrad/mCurie. Besides, in data set [2] (Thyroid, hitherto used substances), the “Ray dose of the critical organs: Thyroid” value is given as 100 - 270 mrad/mCurie. Further, the entries for the “Human internal tumor brain quotient (after autopsy or on an operation preparation)” value in data set [4] and in data set [4] (listed as 99mTcO) were 1.8 - 5.3 : 1 and 0 - 4.3 : 1, respectively. The “Human external tumor brain quotient (in vivo)” value in data set [5] (literature sources 1-6 of Table 1, listed as 99mTcO.sbsb.4) is 1.7 : 1 and 1.3 : 1 and 1.2 - 2.5 : 1.
Consider `COC(CNC(N)=O)[CH2][203Hg][Cl]` (stereo not drawn) [^203 Hg-chlormerodrin], for which, in data set [1], the Tumor affinity result was “low and uncertain tumor affinity”. Besides, the “Ray dose for the person examined” value in data set [2] was “high ray dose”.
As for ^111 indium-citrate complex [Example 7], in data set [6], the Stability of complex entry was “stable”.
Take `COC([CH2][197Hg+])CNC(N)=O.[Cl-]` (stereo not drawn) [197Hg-Chlormerodrin, ^197 Hg-chlormerodrin]: the Tumor affinity entry in data set [1] was “low and uncertain tumor affinity”. For the same compound, in data set [2] (Kidney, hitherto used substances), the “Ray dose of the critical organs: Kidney” value is given as 4370 - 19400 mrad/mCurie. Also, the “Ray dose for the person examined” value in data set [2] is given as “high ray dose”. For the same compound, the “Human external tumor brain quotient (in vivo)” value in data set [5] (literature sources 1-6 of Table 1) was 1.2 - 8.7 : 1 and 1.2 - 3.1 : 1.
`O=[75Se]([O-])[O-].[Na+].[Na+]` [^75 Se-sodium selenite]: in data set [1], the Tumor affinity entry is “low and uncertain tumor affinity”. In addition, the “Ray dose for the person examined” value in data set [2] is on record as “high ray dose”.
Consider “tin-technetium-isocitrate complex [Example 1]”, for which the Stability of complex entry in data set [6] is listed as “stable”.
